Reference: patent US5180720A, “2- and 3-alkoxy or hydroxy-8-substituted-dibenz[b,f]-[1,4]oxazepine-10(11H)-carboxylic acid, substituted hydrazides and methods for treating pain” (G. D. Searle & Co., priority 1991, dated 1993)
Entries after “also recorded” stand apart in the source; their conditions may differ. Values belong to the compound of their own block, whether it stands above or below them.

Legend:
[1] = tested on: prostaglandins of the E series; conditions: cited from earlier work
mice = assay: PBQ Writhing Assay (analgesic activity); type: in vivo, mouse (Charles River male albino mice); conditions: for rank order of potency in the Writhing Assay: PBQ writhing; for PBQ writhing assay, I.G. (activity): 30 mg/kg i.g.; for PBQ writhing assay, S.C. (activity): 30 mg/kg s.c.
Excerpt: The Writhing Assay is one of the most widely-used experimental procedures for measuring the analgesic activity of different narcotic and nonnarcotic analgesic agents, and involves the continuous, chemically-induced pain of visceral origin to an animal, such as a mouse or rat. [Gyires et al., Arch. int. Pharmacodyn, 267, 131-140 (1984); C. Vander Wende et al., Fed. Proc., 15, 494 (1956); Koster et al., Fed. Proc., 18, 412 (1959); and Witken et al., J. Pharmacol. exp. Ther., 133, 400-408 (1961).] Chemicals which may be used to induce this pain include phenylbenzoquinone (PBQ) and acetic acid. As a result of the chemical irritation to the animal, a characteristic stretching and writhing of the animal (dorsiflexion of the animal's back, extension of its hindlimbs and the strong contraction of its abdominal musculature) will generally occur. […] Drugs which reduce the number of writhes of the animal appear to restore the normal nociceptive threshold of the animal.
Charles River male albino mice, weighing 20 to 30 grams were used in this assay.
Thirty minutes after subcutaneous or intragastric administration to ten mice of 30 mg per kilogram of body weight of a compound of the present invention ("test compound"), […] per 10 g of body weight of a 0.025% w/v solution of PBQ was injected intraperitoneally into each mouse. Ten mice which were given saline in place of a test compound of the invention were used as a control group.
Five minutes later, each mouse was individually placed into a glass beaker for observation, and the number of writhes occurring during the following ten-minute period was counted.
A test compound was considered to have produced analgesia in a mouse if, in accordance with the conditions set forth above, and under the test criteria employed for this assay, after the administration of 30 mg per kilogram of body weight of a compound of the present invention to the mouse, the number of writhes elicited by a mouse injected with PBQ was equal to, or less than, one-half the median number of writhes recorded for the saline-treated control group of mice that day, as described by Taber in "Predictive Value of Analgesic Assays in Mice and Rats," Advances in Biochemical Psychopharmacology, 8, 191 (1974).
The standard initial screening dose of a test compound employed in this assay was 30 mg per kilogram of body weight for both routes of administration. If this initial screening dose of the test compound produced analgesia in seven out of ten mice, then the effect of additional doses of the test compound on the writhing response was evaluated, and then the ED50 dose was generally calculated. (The slopes of the dose-response curves for all test compounds analyzed were compared as described by Tallarida and Murray, Manual of Pharmacologic Calculations, Page 11 (Springer Verlag, N.Y., 1981)).

[2] = molecular target: T1, prostaglandin E2-induced contractions of segments of guinea pig ileum (Cavia porcellus, UniProt A0A286XHJ6); assay: Prostaglandin (PGE) Antagonism Assay, guinea pig ileum; type: cell-based; parameters: key to PGE antagonism in guinea pig ileum (activity): Active: A concentration of the test compound was determined to be "active" if it produced a dose ratio significantly greater than that obtained in a series of blank treatments
T1 construct: Segments of ileum about 2 cm long were then cut and mounted in a 10-mL tissue bath; from tissue; host or cells: ileum segments of male albino guinea pigs
T1 sequence (A0A286XHJ6 1-405): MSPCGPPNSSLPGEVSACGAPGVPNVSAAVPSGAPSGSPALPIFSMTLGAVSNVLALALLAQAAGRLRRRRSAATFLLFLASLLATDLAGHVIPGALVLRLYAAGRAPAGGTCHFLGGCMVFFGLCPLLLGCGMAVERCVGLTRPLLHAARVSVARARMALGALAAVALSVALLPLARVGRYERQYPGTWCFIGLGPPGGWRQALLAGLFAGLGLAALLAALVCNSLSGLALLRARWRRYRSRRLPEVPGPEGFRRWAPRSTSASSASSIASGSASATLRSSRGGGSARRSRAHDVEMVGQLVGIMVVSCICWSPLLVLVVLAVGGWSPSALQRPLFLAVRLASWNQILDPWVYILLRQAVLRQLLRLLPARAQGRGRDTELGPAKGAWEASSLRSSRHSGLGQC
Experimental: In order to determine the effectiveness of compounds of the invention ("test compounds") as prostaglandin E2 antagonists, a prostaglandin antagonism assay was conducted, as described below, to determine the ability of these compounds to inhibit prostaglandin E2 -induced contractions of segments of guinea pig ileum.
Male albino guinea pigs weighing 200 to 500 grams were sacrificed by cervical dislocation.
The ileums were then quickly removed from the guinea pigs and placed in a modified Tyrode solution, a solution which is known to those of skill in the art, containing one-half of the usual amount of magnesium ions.
Segments of ileum about 2 cm long were then cut and mounted in a 10-mL tissue bath containing the modified Tyrode solution. The solution was maintained at 37° C. and aerated with a gaseous mixture of 95% oxygen and 5% carbon dioxide.
Submaximal contractions of the ileum segments were then generated by injecting prostaglandin E2 into the bath, and detected isotonically. Data for a control prostaglandin E2 dose response curve plotting concentration of prostaglandin E2 versus number of contractions generated was then obtained by experimentally adjusting the dose of the prostaglandin E2 being injected into the tissue bath, in a manner known by those of skill in the art.
Solutions or suspensions containing an initial amount of a test compound in modified Tyrode solution ("test solutions/ suspensions") were then separately substituted for the tissue bath. […]
If the initial concentration of a test compound was determined to be "active," then varying concentrations of the test compound were then assayed.
The pA2 value (a statistical constant which is a common measure of expressing the potency of a particular drug as a competitive antagonist) was then calculated for the test compound by schild plot calculations, as described by H.O. Schild, "pA, A New Scale for the Measurement of Drug Antagonism," Br. J. Pharmacol, 2, 189 (1947), according to the following mathematical formula: […]
to quantitate the effectiveness of the test compound as a prostaglandin E2 antagonist.

[3] = tested on: stimulant actions of prostaglandins on isolated smooth muscle preparations; conditions: cited from earlier work
[4] = tested on: micturition reflex in rats; conditions: urethane-anesthetized rats; cited from earlier work

SMILES: O=C(CCCCCl)NNC(=O)N1Cc2ccccc2Oc2ccc(Cl)cc21 [8-chlorodibenz[b,f][1,4]-oxazepine-10(11H)-carboxylic acid, 2-(5-chloro-1-oxopentyl)hydrazide]
antagonism of prostaglandins of the E series [1]: competitive antagonists of prostaglandins of the E series

SMILES: CC(=O)NNC(=O)N1Cc2ccccc2Oc2ccc(Cl)cc21 [8-chlorodibenz[b,f][1,4]-oxazepine-10(11H-carboxylic acid, 2-acetylhydrazide]
antagonism of prostaglandins of the E series [1]: competitive antagonists of prostaglandins of the E series

SMILES: CCS(=O)(=O)CCC(=O)NNC(=O)N1Cc2cc(OC)ccc2Oc2ccc(Cl)cc21 [Example 3, 8-chloro-2-methoxydibenz[b,f][1,4]oxazepine-10(11H)-carboxylic acid, 2-[3-(ethylsulfonyl)-1-oxopropyl]hydrazide]
rank order of potency in the Writhing Assay (mice): Example 4>Example 8>Example 7>Example 3

PGE antagonism in guinea pig ileum (activity) ([2]; guinea pig ileum segments, 37° C.): Active
Kb ([2]; guinea pig ileum segments, 37° C., Schild plot, read-out: PGE antagonism in guinea pig ileum (pA2) (converted)): 3.98 µM
SMILES: CCS(=O)(=O)CCC(=O)NNC(=O)N1Cc2cc(O)ccc2Oc2ccc(Cl)cc21 [Example 4, 8-chloro-2-hydroxydibenz[b,f][1,4]oxazepine-10(11H)-carboxylic acid, 2-[3-(ethylsulfonyl)-1-oxopropyl]hydrazide]
PBQ writhing assay, I.G. (activity) (mice): Active
PBQ writhing assay, S.C. (activity) (mice): Active
ED50 (mice; Mus musculus, po, 0.5 h, intragastric, read-out: PBQ writhing assay ED50, I.G.): 12.6 mg/kg
rank order of potency in the Writhing Assay (mice): Example 4>Example 8>Example 7>Example 3; also recorded: the most potent compound of the invention tested in this assay
activity as prostaglandin E2 antagonist, in words ([2]; guinea pig ileum): exhibits activity as a prostaglandin E2 antagonist

SMILES: CCS(=O)(=O)CCC(=O)NNC(=O)N1Cc2ccc(OC)cc2Oc2ccc(Cl)cc21 [Example 7, 8-chloro-3-methoxydibenz[b,f][1,4]oxazepine-10(11H)-carboxylic acid, 2-[3-(ethylsulfonyl)-1-oxopropyl]hydrazide]
PBQ writhing assay, I.G. (activity) (mice): Active
rank order of potency in the Writhing Assay (mice): Example 4>Example 8>Example 7>Example 3

SMILES: CCS(=O)(=O)CCC(=O)NNC(=O)N1Cc2ccc(O)cc2Oc2ccc(Cl)cc21 [Example 8]
PBQ writhing assay, I.G. (activity) (mice): Active
PBQ writhing assay, S.C. (activity) (mice): Active
rank order of potency in the Writhing Assay (mice): Example 4>Example 8>Example 7>Example 3

SMILES: O=C(Cc1ccccc1)NNC(=O)N1Cc2ccccc2Oc2ccc(Cl)cc21 [SC-18637]
inhibition of stimulant actions of prostaglandins [3]: inhibit the stimulant actions of prostaglandins on isolated smooth muscle preparations

SMILES: CC(=O)NNC(=O)N1Cc2ccccc2Oc2ccc(Cl)cc21 [SC-19220]
bladder capacity [4]: increased the bladder capacity
voiding efficiency of micturition [4]: reduced the voiding efficiency of micturition
inhibition of stimulant actions of prostaglandins [3]: inhibit the stimulant actions of prostaglandins on isolated smooth muscle preparations
